Molecules are shown by their SMILES. Where two headings read alike, the source gives them in different places.

We go through 10 compounds from article PMC6273267 (Molecules, 2016).

For data set [1], the target named is T1, AChE (E.C. 3.1.1.7) (Electrophorus electricus, UniProt O42275).
T1 construct: purchased Sigma-Aldrich (St. Louis, MO, USA)
The experiment in a line: biochemical. The following applies: stated in the introduction, early efforts.

Data set [2] deals with T1, AChE (E.C. 3.1.1.7). The experiment in a line: biochemical. The following applies: for Selectivity Index: Selectivity Index = IC50 (BuChE)/IC50 (AChE); for IC50: means ± SEM of three experiments, pH 8.0, 37 °C, 15 min incubation, read-out: AChE Inhibition (IC50). On the procedure: (§1) The inhibitory activity of the synthesized graveoline analogs on cholinesterase in vitro was studied using the Ellman method.
(§2) Stock solutions of all graveoline analogs (10 mM) were prepared using DMSO and stored at −80 °C. Further dilutions to working concentrations were made with double-distilled deionized water. AChE (E.C. 3.1.1.7, obtained from electric eel), BuChE (E.C. 3.1.1.8, obtained from equine serum), 5,5′-dithiobis-(2-nitrobenzoic acid) (Ellman’s reagent, DTNB), acetylthiocholine chloride (ATC), butylthiocholine chloride, thioflavin T, and tarcine hydrochloride were purchased from Sigma-Aldrich (St. Louis, MO, USA). Aβ42 was purchased from Millipore (Billerica, MA, USA). 3-(4,5-Dimethylthiazol-2-yl)-2,5-diphenyltetrazolium bromide (MTT) was purchased formal Aladdin (Shanghai, China). The SH-SY5Y cell line was obtained from the Animal experimental center of Sun Yat-sen University.
(§3) The solutions of the enzyme were prepared to achieve 2.0 units/mL in 2 mL aliquots. The experiment system contained phosphate buffer, pH 8.0 (1 mL), 50 μL of 0.01 M substrate (ATC), 50 μL of 0.01 M DTNB, and 10 μL of enzyme. The substrate was added into the experiment system containing the DTNB, buffer, and enzyme with inhibitors after 15 min of incubation. […] Calculations were conducted according to the assay of Ellman et al.. The in vitro BuChE assay was performed using the method described above.

A further data set has as its target T2, BuChE (E.C. 3.1.1.8) (Equus caballus, UniProt P81908).
T2 construct: purchased Sigma-Aldrich (St. Louis, MO, USA); host or cells: equine serum
As to the kind of experiment: biochemical. The following applies: means ± SEM of three experiments; pH 8.0, 37 °C, 15 min incubation; read-out: BuChE Inhibition (IC50). As for the experimental part: as §1, §2, §3

A further data set concerns the target T3, AChE (Electrophorus electricus, UniProt O42275).
T3 construct: purchased Sigma-Aldrich (St. Louis, MO, USA)
The experiment in a line: Kinetic characterization of AChE inhibition (Lineweaver-Burk plot). The following applies: lines intersect in the second quadrant. It is filed as biochemical, electric eel. As for the experimental part: When the small-molecule ligand was combined with the AChE active center (CAS), the type of inhibition of the enzyme was classified as competitive inhibition; by contrast, when the small-molecule ligand was acted on the PAS, the enzymatic inhibition was classified as non-competitive inhibition. […] This conclusion was verified by subsequent molecular docking experiments.
Figure 2 Lineweaver-Burk plot for the inhibition of AChE by 5c.
The kinetic characterization of AChE was performed using the reported method. Three concentrations ([…]) of the substrate were mixed in 1 mL 0.1 M KH2PO4/K2HPO4 buffer (pH 8.0) containing 10 μL AChE, 50 μL DTNB, and 50 μL substrate. The test compound was added into the assay solution and was pre-incubated with the AChE at 37 °C for 15 min followed by addition of the substrate. The kinetic characterization of the AChE-catalyzed ATC hydrolysis was performed spectrometrically at 412 nm. A parallel control with no inhibitor in the mixture allowed adjusting activities to be measured at various times.

Data set [3] deals with AChE-induced Aβ42 aggregation. As to the kind of experiment: Thioflavin T-based fluorometric assay of AChE-induced Aβ42 aggregation. It is filed as biochemical. The following applies: 5, 10, 20, 40 and 80 μM; 48 h at 37 °C; effect related to compound concentration. As for the experimental part:
To explore the combining effect of graveoline analogs on the AChE functional site PAS, compound 5c was chosen to study the inhibitory activity of AChE-induced Aβ aggregation using thioflavin T-based fluorometric assay. […] The inhibitory effect of 5c was related to the compound concentration. […]
Figure 4 Determination of 5c inhibition potency on AChE-induced amyloid-β (Aβ)42 aggregation.
The self-mediated Aβ42 aggregation was evaluated through the thioflavin-T fluorescence assay. A mixture of 230 μM Aβ42 peptide, 2.30 μM AChE (Aβ42/AChE molar ratio 100:1), and the indicated concentrations of compound 5c (5, 10, 20 ,40 and 80 μM) were added to the phosphate buffer (pH 7.40, 0.01 M). After co-incubated in 37 °C for 48 h, thioflavin-T (5 μM in 50 mM glycine-NaOH buffer, pH 8.00) was added. Fluorescence was monitored with excitation at 450 nm (λex) and 485 nm (λem) by the Spectrofluorimeter LS55. The fluorescence intensity values reached at the plateau (around 300 s) were recorded after subtracting the background fluorescence. The solutions containing Aβ42, and Aβ42 plus HuAChE was checked as control. Each experiment was run in triplicate.

Another data set relates to SH-SY5Y cells. The experiment in a line: Neurocyte toxicity test in vitro (MTT method). It is filed as cell-based. The following applies: 40 μM, 48 h. On the procedure:
Thus, we used the methyl thiazolyl tetrazolium (MTT) method to perform a neurocyte (SH-SY5Y) toxicity test in vitro. […] However, cell viability was greatly influenced at 20 and 40 μM concentrations and the inhibition rates were more than 90%. […] However, compared with the cholinesterase activity at the nanomole level, this level of cytotoxicity is acceptable. […]
Figure 5 Inhibition for SH-SY5Y of compounds 4a–4c, 5a–5c, 6a–6b and curcumin at different concentrations.
The SH-SY5Y cell line was seeded on 96-well plates at a density of 1.0 × 10^4 cells/well. After overnight incubation, the cells were treated with various concentrations (0.1, 1, 20, and 40 μM) of graveoline derivatives for 48 h. Subsequently, 10 μL of 5 mg/mL MTT solution was added to each well and further incubated for 4 h at 37 °C. The solution was carefully removed, and each well was treated with dimethyl sulfoxide (DMSO) (200 μL for each well). The optical density of the wells was then read on the microplate reader at 490 nm. The parallel tests of all drug doses were performed in triplicate.
In general terms: Tetrazolium dyes change colour on reduction, which living cells bring about.

T1 sequence (O42275 24-633): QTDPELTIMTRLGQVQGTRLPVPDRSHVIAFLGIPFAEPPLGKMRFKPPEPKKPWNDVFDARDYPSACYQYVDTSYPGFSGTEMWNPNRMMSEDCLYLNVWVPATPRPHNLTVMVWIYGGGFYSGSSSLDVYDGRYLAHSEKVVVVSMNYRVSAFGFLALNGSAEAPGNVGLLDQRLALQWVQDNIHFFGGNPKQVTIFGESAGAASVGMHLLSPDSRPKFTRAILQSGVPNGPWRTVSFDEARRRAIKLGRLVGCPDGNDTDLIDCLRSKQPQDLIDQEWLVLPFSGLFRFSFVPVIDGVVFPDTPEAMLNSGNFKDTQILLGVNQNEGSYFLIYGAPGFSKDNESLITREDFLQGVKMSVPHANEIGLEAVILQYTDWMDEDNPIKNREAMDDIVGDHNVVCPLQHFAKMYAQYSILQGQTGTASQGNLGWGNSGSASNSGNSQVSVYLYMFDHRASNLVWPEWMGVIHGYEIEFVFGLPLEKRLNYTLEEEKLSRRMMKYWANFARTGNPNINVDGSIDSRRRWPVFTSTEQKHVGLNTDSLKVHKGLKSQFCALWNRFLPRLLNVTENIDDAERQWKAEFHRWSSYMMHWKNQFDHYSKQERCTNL
T2 sequence (P81908 whole entry): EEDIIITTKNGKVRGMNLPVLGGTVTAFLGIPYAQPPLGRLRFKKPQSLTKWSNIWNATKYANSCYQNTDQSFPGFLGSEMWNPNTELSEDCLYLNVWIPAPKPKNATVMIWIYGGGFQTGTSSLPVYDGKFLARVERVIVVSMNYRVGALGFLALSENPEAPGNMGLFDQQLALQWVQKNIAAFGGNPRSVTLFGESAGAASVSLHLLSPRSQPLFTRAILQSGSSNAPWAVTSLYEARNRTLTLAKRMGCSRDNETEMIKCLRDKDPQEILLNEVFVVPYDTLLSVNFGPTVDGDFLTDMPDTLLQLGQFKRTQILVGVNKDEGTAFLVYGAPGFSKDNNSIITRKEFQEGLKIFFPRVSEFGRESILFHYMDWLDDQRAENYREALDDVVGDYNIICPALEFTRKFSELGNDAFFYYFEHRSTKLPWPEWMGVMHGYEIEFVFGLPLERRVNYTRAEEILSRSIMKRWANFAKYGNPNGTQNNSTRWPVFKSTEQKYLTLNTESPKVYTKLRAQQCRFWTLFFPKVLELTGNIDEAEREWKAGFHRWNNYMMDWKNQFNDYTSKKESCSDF
T3 sequence (O42275 24-633): as the sequence (O42275 24-633) above

By IC50 is commonly meant the concentration needed to halve the response being measured. In the case of `Cc1ccc(-c2cc(=O)c3ccccc3n2C)cc1` [Compound 2, 1-Methyl-2-p-tolylquinolin-4(1H)-one], the results for the IC50 at AChE (E.C. 3.1.1.7) [1], on AChE (E.C. 3.1.1.7) [2] and on BuChE (E.C. 3.1.1.8) were 3650 nM, 3650 ± 38 nM and 9306 ± 76 nM, respectively. Moreover, the “Selectivity Index” value on AChE (E.C. 3.1.1.7) [2] was 3.

For the compound `CN(C)CCNCc1ccc(-c2cc(=O)c3ccccc3n2C)cc1` [Compound 4a, 2-(4-((2-(Dimethylamino)ethylamino)methyl)phenyl)-1-methylquinolin-4(1H)-one], at AChE (E.C. 3.1.1.7) [2], the “Selectivity Index” value is listed as 45 and the IC50 was 78.5 ± 1.76 nM. For the same compound, the IC50 at BuChE (E.C. 3.1.1.8) was 3520 ± 46 nM.

`Cn1c(-c2ccc(CNCCN3CCCC3)cc2)cc(=O)c2ccccc21` [Compound 4b, 1-Methyl-2-(4-((2-(pyrrolidin-1-yl)ethylamino)methyl)phenyl)quinolin-4(1H)-one]: the IC50 amounted to 10.2 ± 1.33 nM at AChE (E.C. 3.1.1.7) [2] and 2470 ± 85 nM on BuChE (E.C. 3.1.1.8).

As to `Cn1c(-c2ccc(CNCCN3CCCCC3)cc2)cc(=O)c2ccccc21` [Compound 4c, 1-Methyl-2-(4-((2-(piperidin-1-yl)ethylamino)methyl)phenyl)quinolin-4(1H)-one], at AChE (E.C. 3.1.1.7) [2], the “Selectivity Index” value came to 160 and the IC50 stood at 9.63 ± 0.76 nM. The IC50 on BuChE (E.C. 3.1.1.8) was 1540 ± 29 nM.

For the compound `CN(C)CCCNCc1ccc(-c2cc(=O)c3ccccc3n2C)cc1` [Compound 5a, 2-(4-((3-(Dimethylamino)propylamino)methyl)phenyl)-1-methylquinolin-4(1H)-one], on AChE (E.C. 3.1.1.7) [2], the “Selectivity Index” value stood at 80 and the IC50 stood at 33.4 ± 0.78 nM. Besides, on BuChE (E.C. 3.1.1.8), the IC50 worked out at 2680 ± 32 nM.

As for `Cn1c(-c2ccc(CNCCCN3CCCC3)cc2)cc(=O)c2ccccc21` [Compound 5b, 1-Methyl-2-(4-((3-(pyrrolidin-1-yl)propylamino)methyl)phenyl)quinolin-4(1H)-one], on AChE (E.C. 3.1.1.7) [2], the “Selectivity Index” value was 291 and the IC50 is 6.47 ± 0.15 nM. In addition, on BuChE (E.C. 3.1.1.8), the IC50 was determined as 1890 ± 54 nM.

In the case of `Cn1c(-c2ccc(CNCCCN3CCCCC3)cc2)cc(=O)c2ccccc21` [Compound 5c, 1-Methyl-2-(4-((3-(piperidin-1-yl)propylamino)methyl)phenyl)quinolin-4(1H)-one], the “type of inhibition of AChE” value on AChE is “mixed inhibition”. In data set [3], the “inhibition of AChE-induced Aβ42 aggregation” value is “significantly inhibit”. Besides, at AChE (E.C. 3.1.1.7) [2], the “Selectivity Index” value is on record as 486. For the same compound, the IC50 was 2.36 ± 0.24 nM at AChE (E.C. 3.1.1.7) [2] and 1150 ± 31 nM at BuChE (E.C. 3.1.1.8).

Turning to `CN(C)CCCCNCc1ccc(-c2cc(=O)c3ccccc3n2C)cc1` [Compound 6a, 2-(4-((4-(Dimethylamino)butylamino)methyl)phenyl)-1-methylquinolin-4(1H)-one], the “Selectivity Index” value at AChE (E.C. 3.1.1.7) [2] is 103. The IC50 on AChE (E.C. 3.1.1.7) [2] is 35.5 ± 0.96 nM; at BuChE (E.C. 3.1.1.8) it was 3670 ± 39 nM.

For the compound `Cn1c(-c2ccc(CNCCCCN3CCCC3)cc2)cc(=O)c2ccccc21` [Compound 6b, 1-Methyl-2-(4-((4-(pyrrolidin-1-yl)butylamino)methyl)phenyl)quinolin-4(1H)-one], on AChE (E.C. 3.1.1.7) [2], the “Selectivity Index” value was found to be 193 and the IC50 came to 12.6 ± 0.57 nM. Besides, the IC50 on BuChE (E.C. 3.1.1.8) stood at 2430 ± 49 nM.

In the data set on SH-SY5Y cells, `COc1cc(/C=C/C(=O)CC(=O)/C=C/c2ccc(O)c(OC)c2)ccc1O` [curcumin] yielded a neurocyte inhibition rate of 57.3%.
